Values after ≈ are worked out from the molar mass of the structure shown.

The conditions of data set [1]: cited from earlier work.
For data set [2] the following is noted: pH 1.2.

The term solubility denotes the concentration that dissolves in the medium under given conditions. The aqueous solubility is the concentration that dissolves in the medium under given conditions. Consider `CC(=O)/N=c1/sc(S(N)(=O)=O)nn1C` [methazolamide], for which the solubility in data set [1] (pH 7.2 phosphate buffer) was 3400 µg/mL (≈ 14.4 mM). In addition, the aqueous solubility in data set [1] (water, 25° C.) was 1500 µg/mL (≈ 6.35 mM). Moreover, in data set [2], the “degradation in gastric fluid” value is given as “degradation” and the “solubility in gastric fluid” value is on record as “poor solubility”.

The values above are taken from patent US5776489A, “Controlled release carbonic anhydrase inhibitor containing pharmaceutical compositions from spherical granules in capsule oral dosage unit form” (priority 1992, dated 1998).
